SMILES strings stand for the structures.

The target of this test is T1, recombinant Plk1 protein (Homo sapiens, UniProt P53350).
T1 construct: histidine tag (N); made in house; host or cells: SF9 insect cells
T1 sequence (P53350 whole entry): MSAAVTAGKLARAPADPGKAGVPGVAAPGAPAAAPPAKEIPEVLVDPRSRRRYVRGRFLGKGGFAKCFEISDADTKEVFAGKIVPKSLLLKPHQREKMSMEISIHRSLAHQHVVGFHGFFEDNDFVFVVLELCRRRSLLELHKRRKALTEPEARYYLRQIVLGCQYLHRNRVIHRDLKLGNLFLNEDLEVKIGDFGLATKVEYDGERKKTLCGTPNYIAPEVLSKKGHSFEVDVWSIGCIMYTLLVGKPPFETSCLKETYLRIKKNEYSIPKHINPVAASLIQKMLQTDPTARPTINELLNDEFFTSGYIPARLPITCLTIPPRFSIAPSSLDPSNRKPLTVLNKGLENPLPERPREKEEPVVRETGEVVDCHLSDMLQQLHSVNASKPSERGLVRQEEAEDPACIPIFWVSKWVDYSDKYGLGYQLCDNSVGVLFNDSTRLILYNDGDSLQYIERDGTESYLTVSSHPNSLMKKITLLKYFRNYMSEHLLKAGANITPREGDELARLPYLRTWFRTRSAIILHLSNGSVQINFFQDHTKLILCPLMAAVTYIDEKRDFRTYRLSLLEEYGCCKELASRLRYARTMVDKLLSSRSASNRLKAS
The experiment in a line: Plk1 kinase activity inhibition assay (33P-ATP, alpha casein substrate, flash plates). In kind it is biochemical. Conditions: enzymatic assay, 100 nM Li-ATP, 80 minutes at 30° C. As for the experimental part: The inhibition of Plk1 kinase activity can be measured using recombinant Plk1 protein expressed as an N-terminally histidine-tagged protein in SF9 insect cells and alpha casein as substrate. The Plk1 assay is run in 96 well plates by incubating 50 to 100 ng per well recombinant Plk1, 500 ng per well alpha casein (Sigma, # C-6780) as substrate, 10 μl of compound of invention (test compounds were dissolved as 20 mM solutions in dimethylsulfoxide (DMSO) and subsequently diluted), and 100 nM Li-ATP (including ^33P-ATP) in 100 μl of reaction buffer ([…] HEPES, pH 7.5; 3 mM MgCl2; 3 mM MnCl2; 3 μM Na-Orthovanadat; 1 mM DTT; 1 μg/ml PEG 8000) for 80 minutes at 30° C. The reactions are terminated by adding 100 μl stopping buffer (2% H3PO4 for 5 minutes) and are washed 3 times with washing solution (0.9% NaCl). Determining ^33P incorporated into the protein substrate alpha casein, the detection is based on the adhesion of the phosphorylated protein to the surface of scintillator-coated flash plates (Perkin Elmer, USA; #SMP-200). Phosphorylation of alpha casein is measured by counting the radioactivity bound to the plate for 60 sec. using a plate reader (Perkin Elmer, USA; Wallac Microbeta). By this method, the IC50 value of the Plk1 inhibition is determined as described above.
Take `C[C@@H](Oc1cc(-n2cnc3cnc(CN4CCN(CCN(C)C)CC4)cc32)sc1C(N)=O)c1ccccc1F` [Example 136, 5-[6-({4-[2-(dimethylamino)ethyl]piperazin-1-yl}methyl)-1H-imidazo[4,5-c]pyridin-1-yl]-3-[(1R)-1-(2-fluorophenyl)ethoxy]thiophene-2-carboxamide]: the IC50 fell in the range of 100 to 1000 nM.

For the molecule `C[C@@H](Oc1cc(-n2cnc3cnc(CNC4CCC4)cc32)sc1C(N)=O)c1ccccc1C(F)(F)F` [Example 105, 5-{6-[(cyclobutylamino)methyl]-1H-imidazo[4,5-c]pyridin-1-yl}-3-{(1R)-1-[2-(trifluoromethyl)phenyl]ethoxy}thiophene-2-carboxamide], the concentration for half-maximal inhibition (IC50) lay in the range of 10 to 100 nM. The result for `C[C@@H](Oc1cc(-n2cnc3cnc(CN4CCN(c5ccncc5)CC4)cc32)sc1C(N)=O)c1ccccc1Cl` [Example 131, 3-[(1R)-1-(2-chlorophenyl)ethoxy]-5-{6-[(4-pyridin-4-ylpiperazin-1-yl)methyl]-1H-imidazo[4,5-c]pyridin-1-yl}thiophene-2-carboxamide] reads 10 to 100 nM; that for `C[C@@H](Oc1cc(-n2cnc3cc(CN4CCN(C)CC4)ncc32)sc1C(N)=O)c1ccccc1C(F)(F)F` [Example 49, 5-{6-[(4-methylpiperazin-1-yl)methyl]-3H-imidazo[4,5-c]pyridin-3-yl}-3-{(1R)-1-[2-(trifluoromethyl)phenyl]ethoxy}thiophene-2-carboxamide], 1000 to 10000 nM. The result for `COc1cc2ncn(-c3cc(OCc4ccccc4C(F)(F)F)c(C(N)=O)s3)c2nc1OC` [Example 21B, 5-(5,6-Dimethoxy-3H-imidazo[4,5-b]pyridin-3-yl)-3-{[2-(trifluoromethyl)benzyl]oxy}thiophene-2-carboxamide] reads 10 to 100 nM; that for `C[C@@H](Oc1cc(-n2cnc3cnc(CO)cc32)sc1C(N)=O)c1ccccc1C(F)(F)F` [Example 25, 5-[6-(hydroxymethyl)-1H-imidazo[4,5-c]pyridin-1-yl]-3-{(1R)-1-[2-(trifluoromethyl)phenyl]ethoxy}thiophene-2-carboxamide], below 10 nM; that for `COc1ccc2ncn(-c3cc(OCc4ccccc4C(F)(F)F)c(C(N)=O)s3)c2n1` [Example 22, 5-(5-methoxy-3H-imidazo[4,5-b]pyridin-3-yl)-3-{[2-(trifluoromethyl)benzyl]oxy}thiophene-2-carboxamide], below 10 nM. As for `CCC(Oc1cc(-n2cnc3cnc(CN4CCCN(C)CC4)cc32)sc1C(N)=O)c1ccccc1Cl` (stereo not drawn) [Example 141, 3-{[1-(2-chlorophenyl)propyl]oxy}-5-{6-[(4-methyl-1,4-diazepan-1-yl)methyl]-1H-imidazo[4,5-c]pyridin-1-yl}thiophene-2-carboxamide], the figure is 10 to 100 nM; as for `CNCc1cc2ncn(-c3cc(O[C@H](C)c4ccccc4C(F)(F)F)c(C(N)=O)s3)c2cn1` [Example 116, 5-{6-[(methylamino)methyl]3H-imidazo[4,5-c]pyridin-3-yl}-3-{(1R)-1-[2-(trifluoromethyl)phenyl]ethoxy}thiophene-2-carboxamide], 10 to 100 nM; as for `C[C@@H](Oc1cc(-n2cnc3cnc(CN4CCN(C)CC4)cc32)sc1C(N)=O)c1ccccc1Cl` [Example 100, 3-[(1R)-1-(2-chlorophenyl)ethoxy]-5-{6-[(4-methylpiperazin-1-yl)methyl]-1H-imidazo[4,5-c]pyridin-1-yl}thiophene-2-carboxamide], below 10 nM.

Take `CC(=O)N1CCCN(Cc2cc3c(cn2)ncn3-c2cc(O[C@H](C)c3ccccc3C(F)(F)F)c(C(N)=O)s2)CC1` [Example 81, 5-{6-[(4-acetyl-1,4-diazepan-1-yl)methyl]-1H-imidazo[4,5-c]pyridin-1-yl}-3-{(1R)-1-[2-(trifluoromethyl)phenyl]ethoxy}thiophene-2-carboxamide]: the half-inhibitory concentration (IC50) lay within 10 to 100 nM. As to `C[C@@H](Oc1cc(-n2cnc3cc(CN)ncc32)sc1C(N)=O)c1ccccc1C(F)(F)F` [Example 50, 5-[6-(aminomethyl)-3H-imidazo[4,5-c]pyridin-3-yl]-3-{(1R)-1-[2-(trifluoromethyl)phenyl]ethoxy}thiophene-2-carboxamide], the half-maximal inhibitory concentration (IC50) was 10 to 100 nM.

As for `NC(=O)c1sc(-n2cnc3ccncc32)cc1OCc1ccccc1C(F)(F)F` [Example 3, 5-(3H-Imidazo[4,5-c]pyridin-3-yl)-3-{[2-(trifluoromethyl)benzyl]oxy}thio-phene-2-carboxamide], the IC50 lay in the range of 100 to 1000 nM.

Turning to `Cc1ccccc1C(C)Oc1cc(-n2cnc3cnc(CO)cc32)sc1C(N)=O` (stereo not drawn) [Example 110, 5-[6-(hydroxymethyl)-1H-imidazo[4,5-c]pyridin-1-yl]-3-[1-(2-methylphenyl)ethoxy]thiophene-2-carboxamide], the half-inhibitory concentration (IC50) was below 10 nM.

Regarding `CCOc1ccc(OCC)c(COc2cc(-n3cnc4cnc(CN5CCN(C)CC5)cc43)sc2C(N)=O)c1` [Example 155, 3-[(2,5-diethoxybenzyl)oxy]-5-{6-[(4-methylpiperazin-1-yl)methyl]-1H-imidazo[4,5-c]pyridin-1-yl}thiophene-2-carboxamide], the 50% inhibitory concentration (IC50) is 100 to 1000 nM.

`C[C@@H](Oc1cc(-n2cnc3cnc(CN4CCC(O)C4)cc32)sc1C(N)=O)c1ccccc1C(F)(F)F` (stereo partly drawn) [Example 94, 5-{6-[(3-hydroxypyrrolidin-1-yl)methyl]-1H-imidazo[4,5-c]pyridin-1-yl}-3-{(1R)-1-[2-(trifluoromethyl)phenyl]ethoxy}thiophene-2-carboxamide]: the IC50 is below 10 nM. Regarding `CC(Oc1cc(-n2cnc3cc(CN4CCN(C(=O)c5ccccc5)CC4)ncc32)sc1C(N)=O)c1ccccc1F` (stereo not drawn) [Example 160, 5-{6-[(4-benzoylpiperazin-1-yl)methyl]3H-imidazo[4,5-c]pyridin-3-yl}-3-[-1-(2-fluorophenyl)ethoxy]thiophene-2-carboxamide], the concentration for half-maximal inhibition (IC50) lay within 1000 to 10000 nM.

Regarding `CC(Oc1cc(-n2cnc3cnc(CO)cc32)sc1C(N)=O)c1ccccc1F` (stereo not drawn) [Example 57], the IC50 is below 10 nM. Take `C[C@@H](Oc1cc(-n2cnc3cnc(CN4C[C@@H]5C[C@H]4CN5)cc32)sc1C(N)=O)c1ccccc1C(F)(F)F` [Example 95, 5-{6-[(1S,4S)-2,5-diazabicyclo[2.2.1]hept-2-ylmethyl]-1H-imidazo[4,5-c]pyridin-1-yl}-3-{(1R)-1-[2-(trifluoromethyl)phenyl]ethoxy}thiophene-2-carboxamide]: the half-inhibitory concentration (IC50) was below 10 nM.

As for `C[C@@H](Oc1cc(-n2cnc3cnc(CN4CCN(CCN5CCOCC5)CC4)cc32)sc1C(N)=O)c1ccccc1C(F)(F)F` [Example 80, 5-(6-{[4-(2-morpholin-4-ylethyl)piperazin-1-yl]methyl}-1H-imidazo[4,5-c]pyridin-1-yl)-3-{(1R)-1-[2-(trifluoromethyl)phenyl]ethoxy}thiophene-2-carboxamide], the IC50 was in the range of 10 to 100 nM. On to `C[C@@H](Oc1cc(-n2cnc3cnc(CN4CCN(S(C)(=O)=O)CC4)cc32)sc1C(N)=O)c1ccccc1C(F)(F)F` [Example 66, 5-(6-{[4-(methylsulfonyl)piperazin-1-yl]methyl}-1H-imidazo[4,5-c]pyridin-1-yl)-3-{(1R)-1-[2-(trifluoromethyl)phenyl]ethoxy}thiophene-2-carboxamide], for which the IC50 was below 10 nM. The result for `C[C@@H](Oc1cc(-n2cnc3cnc(CN4CCN(C(=O)N(C)C)CC4)cc32)sc1C(N)=O)c1ccccc1Cl` [Example 128, 4-[(1-{5-carbamoyl-4-[(1R)-1-(2-chlorophenyl)ethoxy]-2-thienyl}-1H-imidazo[4,5-c]pyridin-6-yl)methyl]-N,N-dimethylpiperazine-1-carboxamide] reads below 10 nM. As for `CC(Oc1cc(-n2cnc3cnc(CN4CCN(C)CC4)cc32)sc1C(N)=O)c1ccc(F)cc1C(F)(F)F` (stereo not drawn) [Example 97, 3-{1-[4-fluoro-2-(trifluoromethyl)phenyl]ethoxy}-5-{6-[(4-methylpiperazin-1-yl)methyl]-1H-imidazo[4,5-c]pyridin-1-yl}thiophene-2-carboxamide], the figure is below 10 nM; as for `C[C@H](Oc1cc(-n2cnc3cnc(CN4CCN(C)CC4)cc32)sc1C(N)=O)c1ccccc1C(F)(F)F` [Example 48, 5-{6-[(4-methylpiperazin-1-yl)methyl]-1H-imidazo[4,5-c]pyridin-1-yl}-3-{(1S)-1-[2-(trifluoromethyl)phenyl]ethoxy}thiophene-2-carboxamide], 10 to 100 nM; as for `C[C@@H](Oc1cc(-n2cnc3cnc(CN4CCNCC4)cc32)sc1C(N)=O)c1ccccc1C(F)(F)F` [Example 92], below 10 nM. The result for `C[C@@H](Oc1cc(-n2cnc3cnc(CN4CCC(O)CC4)cc32)sc1C(N)=O)c1ccccc1C(F)(F)F` [Example 64, 5-{6-[(4-hydroxypiperidin-1-yl)methyl]-1H-imidazo[4,5-c]pyridin-1-yl}-3-{(1R)-1-[2-(trifluoromethyl)phenyl]ethoxy}thiophene-2-carboxamide] reads below 10 nM; that for `CCN1CCN(Cc2cc3c(cn2)ncn3-c2cc(OC(C)c3ccccc3C)c(C(N)=O)s2)CC1` (stereo not drawn) [Example 150, 5-{6-[(4-ethylpiperazin-1-yl)methyl]-1H-imidazo[4,5-c]pyridin-1-yl}-3-[1-(2-methylphenyl)ethoxy]thiophene-2-carboxamide], 10 to 100 nM.

Broadly, the IC50 is the concentration that inhibits the measured activity by half.

The record behind these values is patent US8273890B2 (4SC AG, priority 2007, dated 2012).
